The values below come from patent EP0847397B1, “WATER-SOLUBLE C-RING ANALOGUES OF 20 (S)-CAMPTOTHECIN” (DR. REDDY'S RESEARCH FOUNDATION, priority 1996, dated 1997).

One data set relates to COLO 205. Briefly: NCI in vitro 60 human tumor cell line assay. Type of data set: cell-based. Particulars: COLO 205, 48 h, read-out: Total Growth Inhibition (TGI).
The subject of the next data set is MDA-N. As to the kind of experiment: NCI in vitro 60 human tumor cell line assay. In kind it is cell-based. Particulars: BREAST, 48h, read-out: Total Growth Inhibition (TGI).
The subject of another data set is MDA-MB-435. As to the kind of experiment: NCI in vitro 60 human tumor cell line assay. Type of data set: cell-based. The conditions noted are these: MDA-MB-435, 48 h, read-out: Total Growth Inhibition (TGI).
In a further data set the test system is H 226. Briefly: NCI in vitro 60 human tumor cell line assay. In kind it is cell-based. The conditions noted are these: NCI-H226, 48 h, read-out: Total Growth Inhibition (TGI).
A further data set has as its system HOP 62. Briefly: NCI in vitro 60 human tumor cell line assay. Type of data set: cell-based. The conditions noted are these: HOP-62, 48 h, read-out: Total Growth Inhibition (TGI).
The subject of another data set is MCF 7/ ADR. As to the kind of experiment: NCI in vitro 60 human tumor cell line assay. Type of data set: cell-based. The conditions noted are these: Homo sapiens, NCI/ADR-RES, 48 h, read-out: Total Growth Inhibition (TGI).
Another data set relates to KM 12. Briefly: NCI in vitro 60 human tumor cell line assay. In kind it is cell-based. Particulars: KM12, 48 h, read-out: Total Growth Inhibition (TGI).
The subject of a further data set is T 47D. Briefly: NCI in vitro 60 human tumor cell line assay. In kind it is cell-based. The conditions noted are these: T47D, 48 h, read-out: Total Growth Inhibition (TGI).
The next data set relates to H 522. Briefly: NCI in vitro 60 human tumor cell line assay. Type of data set: cell-based. The conditions noted are these: NCI-H522, 48 h, read-out: Total Growth Inhibition (TGI).
A further data set relates to HOP 92. Briefly: NCI in vitro 60 human tumor cell line assay. The conditions noted are these: HOP-92, 48 h, read-out: Total Growth Inhibition (TGI). In kind it is cell-based.
Data set [1] deals with NCI's 60 human tumor cell line assay. Briefly: cells. Type of data set: cell-based. The conditions noted are these: 60 cell, 48 h, read-out: IC50 (mean GI50 against NCI's 60 human tumor cell line assay).
Procedure: (§1) Each test compound was screened against a battery of 60 human cell lines obtained from eight organs. In a typical procedure, the cell suspensions that were diluted according to the particular cell type and the expected target cell density (5000-40,000 cells per well based on cell growth characteristics) were added into 96-well microtiter plates. Inoculates were allowed a preincubation period of 24h at 37°C. for stabilization. Dilutions at twice the intended test concentrations were added at time zero in 100-µl aliquots to microtiter plate wells. Usually test compounds were evaluated at five 10-fold dilutions. The highest well concentration used in the test is 10^-4M. The cells are then incubated in the presence of drug (the test compound) for further 48h in 5% CO2 atmosphere and 100% humidity. At the end of this time, the adherent cells are fixed to the plate by means of trichloroacetic acid, and after a number of washes, the cell layer is treated with the protein stain Sulforhodamine B. The optical density which is proportional to protein mass, is then read by automated spectrophotometric plate readers at a wavelength of 515 nm. Readings are transferred to a microcomputer and final reports are generated using especially developed software.
The subject of the next data set is BT 549. Briefly: NCI in vitro 60 human tumor cell line assay. Type of data set: cell-based. The conditions noted are these: BT-549, 48 h, read-out: Total Growth Inhibition (TGI).
For another data set, the system named is H 23. Briefly: NCI in vitro 60 human tumor cell line assay. In kind it is cell-based. Particulars: NCI-H23, 48 h, read-out: Total Growth Inhibition (TGI).
The subject of the next data set is OVCAR 8. Briefly: NCI in vitro 60 human tumor cell line assay. Type of data set: cell-based. Particulars: OVCAR-8, 48 h, read-out: Total Growth Inhibition (TGI).
For the next data set, the system named is SK OV3. Briefly: NCI in vitro 60 human tumor cell line assay. In kind it is cell-based. The conditions noted are these: SK-OV-3, 48 h, read-out: Total Growth Inhibition (TGI).
The test system of the next data set is EKVX. Briefly: NCI in vitro 60 human tumor cell line assay. Type of data set: cell-based. Particulars: 48 h, read-out: Total Growth Inhibition (TGI).
The subject of the next data set is U 251. Briefly: NCI in vitro 60 human tumor cell line assay. The conditions noted are these: U-251, 48 h, read-out: Total Growth Inhibition (TGI). In kind it is cell-based.
For the next data set, the system named is H 322M. Briefly: NCI in vitro 60 human tumor cell line assay. Type of data set: cell-based. Particulars: NCI-H322M, 48 h, read-out: Total Growth Inhibition (TGI).
Another data set has as its system UO 31. Briefly: NCI in vitro 60 human tumor cell line assay. Type of data set: cell-based. The conditions noted are these: UO-31, 48 h, read-out: Total Growth Inhibition (TGI).
The nature of data set [2]: Lactone stability in whole blood (HPLC). In kind it is in vitro ADME. The conditions noted are these: human, whole blood, 1 μM, 37°C, lactone peak area relative to zero time (100%); read-out: Lactone Stability in Whole Blood (after 3 hours). The protocol: 2. Lactone Stability in whole blood:
2 ml of blood from a healthy volunteer was collected in a tube containing 40 µl of heparin (572 IU) to prevent coagulation, 4 mM and 40 µM working solutions of the drug in DMSO were prepared and added to aliquots of whole blood to give final concentration of 100 µM and 1 µM respectively. The drug is incubated in whole blood at 37°C and 20 µl samples are collected into 180 µl of chilled methanol (-30°C) at different time intervals (0, 1, 2 & 3 hrs). Vortex and then centrifuge at 11000 rpm for 3 min in a microcentrifuge at room temperature. Dilute 100 µl of the supernatant with water to 300-500 µl depending upon the signal response (UV for 100 µM concentration and fluoroscence for 1 µM concentration) of the compound. 200 µl of the diluted sample is injected on to the HPLC column previously equilibrated with the mobile phase. The area under peak corrsponding to lactone forms is measured. Zero time peak area is taken as 100%, and the proportion of lactone peak area at different time points is calculated to determine the equilibrium lactone stability as obtained by consistent lactone proportion over two successive time points. (Biochemistry, 1994; 33:10325-10336 and J. Pharm. Sci., 1995; 84:518-519).

For a further data set, the system named is SF 268. Briefly: NCI in vitro 60 human tumor cell line assay. Type of data set: cell-based. The conditions noted are these: SF-268, 48 h, read-out: Total Growth Inhibition (TGI).

Procedure for BT 549: as §1
Procedure for COLO 205: as §1
Procedure for EKVX: as §1
Procedure for H 226: as §1
Procedure for H 23: as §1
Procedure for H 322M: as §1
Procedure for H 522: as §1
Procedure for KM 12: as §1
Procedure for MCF 7/ ADR: as §1
Procedure for MDA-N: (§2) Each test compound was screened against a battery of 60 human cell lines obtained from eight organs. In a typical procedure, the cell suspensions that were diluted according to the particular cell type and the expected target cell density (5000-40,000 cells per well based on cell growth characteristics) were added into 96-well microtiter plates. Inoculates were allowed a preincubation period of 24h at 37°C. for stabilization. Dilutions at twice the intended test concentrations were added at time zero in 100-µl aliquots to microtiter plate wells. Usually test compounds were evaluated at five 10-fold dilutions. The highest well concentration used in the test is 10^-4M. The cells are then incubated in the presence of drug (the test compound) for further 48h in 5% CO2 atmosphere and 100% humidity. At the end of this time, the adherent cells are fixed to the plate by means of trichloroacetic acid, and after a number of washes, the cell layer is treated with the protein stain Sulforhodamine B. The optical density which is proportional to protein mass, is then read by automated spectrophotometric plate readers at a wavelength of 515 nm.
Procedure for OVCAR 8: as §2
Procedure for SF 268: as §2
Procedure for SK OV3: as §2
Procedure for T 47D: as §1
Procedure for U 251: as §1
Procedure for UO 31: as §1

Regarding `CC[C@@]1(O)C(=O)OCc2c1cc1n(c2=O)C(OCC(F)(F)F)c2cc3cc(O)ccc3nc2-1` (stereo partly drawn) [Example 27, 10-Hydroxy-5-trifluoroethoxycamptothecin], the IC (TGI) is 19.5 µM in the data set with COLO 205; 11 µM in the data set on MDA-N; 9.62 µM with MDA-MB-435; 4.75 µM in the data set on H 226; 4.95 µM in the data set on HOP 62; 1.25 µM in the data set on MCF 7/ ADR. In addition, the IC (TGI) was 10.6 µM with KM 12; 0.81 µM in the data set on T 47D; 7.66 µM in the data set on H 522; 4.88 µM with HOP 92; 11.4 µM with BT 549; 0.91 µM in the data set on H 23. Further, the mean GI50 in data set [1] was found to be 0.38 µM.

For the compound `CC[C@@]1(O)C(=O)OCc2c1cc1n(c2=O)C(OCCO)c2cc3ccccc3nc2-1` (stereo partly drawn) [Example 26, 5-(2'-Hydroxyethoxy)camptothecin], the IC (TGI) with OVCAR 8 worked out at 13.4 µM; with SK OV3, 3.8 µM; with EKVX, 63 µM; with U 251, 7.58 µM; in the data set on H 322M, 31.6 µM; in the data set with UO 31, 3.89 µM. Also, in the data set with SF 268, the IC (TGI) came to 30.9 µM. In addition, the remaining at 3 h, 1 µM in [2] amounted to 5.3%.
